In PMC12133982, “Predominant T-cell epitopes of SARS-CoV-2 restricted by multiple prevalent HLA-B and HLA-C allotypes in Northeast Asia” (Frontiers in Immunology, 2025):
Where two headings read alike, the source gives them in different places. Peptide text beside a SMILES is read from it.

Experiments:
HLA-C1402 = HLA-C1402 (Homo sapiens, UniProt P10321, A176E/A330V/A35S/A97T/C350S/D114A/D33S/L171W/L180R/L218V/M285V/M309V/M331V/P208H/Q277E/Q291P/R121W/R243W/S123F/S297R/S48A/T329A/T363A/V319A); assay: Competitive peptide binding assay, CIR-C1402; conditions: HMy2.CIR-C1402 cells, reference Cy5-[…], class from inhibition at 5 and 15 μM, flow cytometry MFI; read-out: Binding affinity with HLA-C1402
Procedure: (§1) Then, competitive peptide binding assays were performed.

HLA-C0702 = HLA-C0702 (Homo sapiens, UniProt P10321); assay: Competitive peptide binding assay, CIR-C0702
HLA-C0304 = HLA-C0304 (Homo sapiens, UniProt P10321, A176E/A330V/A97T/C25G/C350S/D114A/D33Y/E197K/L119I/L127V/L171W/L218V/M285V/M309V/M331V/P208H/Q277E/Q291P/R243W/R45H/S123Y/S140Y/S297R/S48A/T118I/T187L/T329A/T363A/V319A); assay: Competitive peptide binding assay, CIR-C0304; conditions: HMy2.CIR-C0304 cells, reference Cy5-[…], class from inhibition at 5 and 15 μM, flow cytometry MFI; read-out: Binding affinity with HLA-C0304
Procedure: as §1

HLA-C0302 = HLA-C0302 (Homo sapiens, UniProt P10321, A176E/A330V/A97T/C25G/C350S/D114A/D33Y/E197K/L127V/L171W/L218V/M285V/M309V/M331V/P208H/Q277E/Q291P/R243W/R45H/S123Y/S297R/S48A/T118I/T187L/T329A/T363A/V319A); assay: Competitive peptide binding assay, CIR-C0302; conditions: HMy2.CIR-C0302 cells, reference Cy5-[…], class from inhibition at 5 and 15 μM, flow cytometry MFI; read-out: Binding affinity with HLA-C0302
Procedure: as §1

HLA-C0303 = HLA-C0303 (Homo sapiens, UniProt P10321, A176E/A330V/A97T/C25G/C350S/D114A/D33Y/E197K/G115R/L119I/L127V/L171W/L218V/M285V/M309V/M331V/P208H/Q277E/Q291P/R243W/R45H/S123Y/S140Y/S297R/S48A/T118I/T187L/T329A/T363A/V319A); assay: Competitive peptide binding assay, CIR-C0303; conditions: HMy2.CIR-C0303 cells, reference Cy5-[…], class from inhibition at 5 and 15 μM, flow cytometry MFI; read-out: Binding affinity with HLA-C0303
Procedure: as §1

HLA-C0801 = HLA-C0801 (Homo sapiens, UniProt P10321, A176T/A330V/A97T/C350S/D114A/D138N/D33Y/E201K/E299G/L171W/L218V/M285V/M309V/M331V/P208H/Q277E/Q291P/R59Q/S123Y/S140F/S297R/S48A/T329A/T363A/V319A/V328M); assay: Competitive peptide binding assay, CIR-C0801; conditions: HMy2.CIR-C0801 cells, reference Cy5-[…], class from inhibition at 5 and 15 μM, flow cytometry MFI; read-out: Binding affinity with HLA-C0801
Procedure: as §1

HLA-C0602 = HLA-C0602 (Homo sapiens, UniProt P10321, A176E/A330V/C350S/L171W/L180W/L218V/M285V/M309V/M331V/N104K/P208H/Q277E/Q291P/R121W/S101N/S123Y/S297R/T329A/T363A/V319A/V328M); assay: Competitive peptide binding assay, CIR-C0602
HLA-C0401 = HLA-C0401 (Homo sapiens, UniProt P10321, A176E/A330V/A35S/A73E/C25G/C350S/D138N/D33S/E299K/L171W/L180R/L218V/M285V/M309V/M331V/N104K/P208H/Q277E/Q291P/R243W/R38W/S101N/S123F/S140F/S297R/S48A/T329A/T363A/V319A/V327M); assay: Competitive peptide binding assay, CIR-C0401; conditions: HMy2.CIR-C0401 cells, reference Cy5-[…], class from inhibition at 5 and 15 μM, flow cytometry MFI; read-out: Binding affinity with HLA-C0401
Procedure: as §1

HLA-C0102 = HLA-C0102 (Homo sapiens, UniProt P10321, A176E/A330V/A35S/A97T/C350S/D114A/D33F/L171W/L180R/L218V/M285V/M309V/M331V/P208H/Q277E/Q291P/R121W/R243W/R30K/S123C/S140Y/S297R/T329A/T363A/V272M/V319A); assay: Competitive peptide binding assay, CIR-C0102; conditions: for inhibition at 5 µM / inhibition at 15 µM: read-out: Inhibition % of Cy5-reference peptide binding
Procedure: as §1

[1] = HMy2.CIR-C0102 cells, reference Cy5-[…], class from inhibition at 5 and 15 μM, flow cytometry MFI, read-out: Binding affinity with HLA-C0102

SMILES	IC50 (HLA-C1402) [µM]	IC50 (HLA-C0702) [µM]	IC50 (HLA-C0304) [µM]	IC50 (HLA-C0302) [µM]	IC50 (HLA-C0303) [µM]	IC50 (HLA-C0801) [µM]	IC50 (HLA-C0602) [µM]	IC50 (HLA-C0401) [µM]	IC50 (HLA-C0102; [1]) [µM]	inhibition at 5 µM (HLA-C0102) [%]	inhibition at 15 µM (HLA-C0102) [%]	IC50 (HLA-C0102) [µM]
CC(C)C[C@H](NC(=O)[C@H](CC(C)C)NC(=O)[C@H](Cc1ccccc1)NC(=O)[C@@H](NC(=O)[C@@H](NC(=O)[C@H](Cc1ccccc1)NC(=O)[C@H](C)NC(=O)[C@H](CC(C)C)NC(=O)[C@@H](N)Cc1ccccc1)C(C)C)C(C)C)C(=O)O [Epitope M76] (H-FLAFVVFLL-OH; N-terminus and C-terminus assumed)	> 15	5 to 15	< 5	5 to 15	–	–	–	–	–	–	–	–
CC[C@H](C)[C@H](NC(=O)[C@H](Cc1ccccc1)NC(=O)[C@@H](N)Cc1ccc(O)cc1)C(=O)N[C@@H](C)C(=O)N[C@@H](CO)C(=O)N[C@@H](Cc1ccccc1)C(=O)N[C@@H](CCCNC(=N)N)C(=O)N[C@@H](CC(C)C)C(=O)N[C@@H](Cc1ccccc1)C(=O)O [Epitope M107] (H-YFIASFRLF-OH; N-terminus and C-terminus assumed)	< 5	> 15	–	–	5 to 15	> 15	> 15	–	–	–	–	–
CC(C)C[C@H](NC(=O)[C@@H](NC(=O)[C@@H](NC(=O)CNC(=O)[C@H](CCC(N)=O)NC(=O)[C@@H]1CCCN1C(=O)[C@H](CC(C)C)NC(=O)[C@H](CCC(N)=O)NC(=O)[C@@H](N)CC(C)C)[C@@H](C)O)[C@@H](C)O)C(=O)O [Epitope M13] (H-LQLPQGTTL-OH; N-terminus and C-terminus assumed)	> 15	5 to 15	< 5	–	–	–	–	5 to 15	–	–	–	–
CC(C)C[C@H](NC(=O)[C@H](CC(C)C)NC(=O)[C@H](Cc1ccccc1)NC(=O)[C@@H](NC(=O)[C@H](CCCNC(=N)N)NC(=O)[C@@H]1CCCN1C(=O)[C@H](CCC(N)=O)NC(=O)[C@H](CC(C)C)NC(=O)[C@@H](N)Cc1ccc(O)cc1)[C@@H](C)O)C(=O)O [Epitope M35] (H-YLQPRTFLL-OH; N-terminus and C-terminus assumed)	5 to 15	< 5	> 15	> 15	–	–	–	–	> 15	–	–	–
CSCC[C@H](NC(=O)[C@H](C)NC(=O)[C@@H](N)Cc1ccccc1)C(=O)N[C@@H](CCC(N)=O)C(=O)N[C@@H](CCSC)C(=O)N[C@@H](C)C(=O)N[C@@H](Cc1ccc(O)cc1)C(=O)N[C@@H](CCCNC(=N)N)C(=O)N[C@@H](Cc1ccccc1)C(=O)O [Epitope M63]	–	> 15	–	< 5	5 to 15	> 15	> 15	> 15	> 15	–	–	–
CC[C@H](C)[C@H](N)C(=O)N[C@@H](C)C(=O)N[C@@H](CC(N)=O)C(=O)N[C@@H](CCC(N)=O)C(=O)N[C@@H](Cc1ccccc1)C(=O)N[C@@H](CC(N)=O)C(=O)N[C@@H](CO)C(=O)N[C@@H](C)C(=O)N[C@H](C(=O)O)[C@@H](C)CC [Epitope M37] (H-IANQFNSAI-OH; N-terminus and C-terminus assumed)	–	–	–	–	< 5	> 15	> 15	> 15	< 5	68.9	86.1	–
CC[C@H](C)[C@H](N)C(=O)N[C@H](C(=O)N[C@@H](CC(N)=O)C(=O)N[C@@H](CO)C(=O)N[C@H](C(=O)N[C@@H](CC(C)C)C(=O)N[C@@H](CC(C)C)C(=O)N[C@@H](Cc1ccccc1)C(=O)N[C@@H](CC(C)C)C(=O)O)C(C)C)C(C)C [Epitope M7] (H-IVNSVLLFL-OH; N-terminus and C-terminus assumed)	> 15	> 15	> 15	> 15	–	–	5 to 15	5 to 15	< 5	–	–	–
CC[C@H](C)[C@H](NC(=O)[C@@H](NC(=O)[C@H](CC(N)=O)NC(=O)[C@H](CCCNC(=N)N)NC(=O)[C@H](CCCCN)NC(=O)[C@@H](NC(=O)[C@H](Cc1ccc(O)cc1)NC(=O)[C@H](C)NC(=O)[C@@H](N)Cc1ccccc1)[C@@H](C)O)C(C)C)C(=O)O [Epitope M23] (H-FAYTKRNVI-OH; N-terminus and C-terminus assumed)	–	–	–	–	< 5	> 15	–	> 15	5 to 15	–	78.9	–
CSCC[C@H](NC(=O)[C@H](C)NC(=O)[C@@H]1CCCN1C(=O)[C@H](CC(=O)O)NC(=O)[C@H](C)NC(=O)[C@H](C)NC(=O)[C@H](Cc1ccc(O)cc1)NC(=O)[C@@H](NC(=O)[C@@H](N)CC(C)C)C(C)C)C(=O)O [Epitope M58] (H-LVYAADPAM-OH; N-terminus and C-terminus assumed)	–	> 15	–	< 5	5 to 15	> 15	–	> 15	> 15	–	–	–
CSCC[C@H](NC(=O)[C@H](CO)NC(=O)[C@H](CCC(N)=O)NC(=O)[C@H](CCC(N)=O)NC(=O)[C@H](CC(C)C)NC(=O)[C@H](CCC(N)=O)NC(=O)[C@H](CCCCN)NC(=O)[C@H](CO)NC(=O)[C@@H](N)Cc1ccccc1)C(=O)O [Epitope M14] (H-FSKQLQQSM-OH; N-terminus and C-terminus assumed)	–	5 to 15	5 to 15	< 5	< 5	> 15	–	–	> 15	–	–	–
CC(C)[C@H](NC(=O)[C@@H](NC(=O)[C@H](Cc1ccccc1)NC(=O)[C@@H]1CCCN1C(=O)[C@@H](NC(=O)CNC(=O)[C@H](CC(=O)O)NC(=O)[C@@H](NC(=O)[C@@H](N)Cc1ccccc1)C(C)C)C(C)C)C(C)C)C(=O)O [Epitope M96] (H-FVDGVPFVV-OH; N-terminus and C-terminus assumed)	5 to 15	> 15	–	–	> 15	< 5	–	–	–	3.72	20.7	> 15
CC(C)[C@H](NC(=O)CNC(=O)[C@H](Cc1c[nH]cn1)NC(=O)[C@@H]1CCCN1C(=O)[C@H](C)NC(=O)[C@H](CO)NC(=O)[C@@H](N)CCC(N)=O)C(=O)N[C@H](C(=O)N[C@@H](Cc1ccccc1)C(=O)O)C(C)C [Epitope M69] (H-QSAPHGVVF-OH; N-terminus and C-terminus assumed)	> 15	–	–	–	–	> 15	> 15	> 15	> 15	–	–	–
